Experimental data taken from article PMC10573175 (International Journal of Molecular Sciences, 2023).

Key:
[1] = target: T1, human serum albumin (HSA) (Homo sapiens, UniProt P02768); test: Intrinsic fluorescence quenching of HSA by ceftazidime (Stern–Volmer, modified Stern–Volmer, Van't Hoff analysis); type: binding; details: for KSV (Stern–Volmer quenching constant): 20 mM tris buffer pH 7.4, excitation 295 nm; for ΔG (free energy change of binding): Van't Hoff
Source text: The intrinsic fluorescence of HSA is mainly contributed by a single tryptophan residue, which can be excited at 295 nm to give the maximum fluorescence emission at 340 nm. […] The corrected fluorescence data are used to further analyze the results given in the next section.
The fluorescence quenching is the result of either stable complex formation between fluorophore and the quencher or there is a collisional encounter between them. The first phenomenon is termed as static quenching, while the second one is known as dynamic quenching. […] The involvement of the quenching mechanism, either static or dynamic, can be understood with the help of temperature variation. Dynamic quenching increases in increasing the temperature while static quenching constant decreases in such a case.
The binding constant (Kb) and number of binding sites (n) can also be estimated using the modified Stern–Volmer equation as:(2) logF0−F/F=logKb+nlog[Q].
Van’t Hoff equations (given in Equations (S2) and (S3)) can be used to evaluate the thermodynamic parameters such as the free energy change (ΔG), enthalpy change (ΔH), and entropy change (ΔS) of a process using the values of physical parameters at equilibrium. Herein, we used the binding constant, Kb, at three different temperatures to fit into the Equation (S1) to obtain the values of ΔH from the slope and ΔS from the intercept of the plot of ln Kb vs. 1/T (Figure 5A), which are given in Table 1. The values of ΔH and ΔS were, further, used to calculate ΔG. From the evaluation of thermodynamic parameters, involvement of the major forces in the binding can be understood along with the feasibility of the interaction. According a to report published by Ross and Subramanian, hydrogen bonding interactions dominate when the values of ΔH and ΔS are negative, whereas positive values of these parameters can be observed in case of hydrophobic interactions.
UV-visible studies were performed on a Perkin Elmer Lambda 45 spectrophotometer (Germany) within the range of 200 nm to 500 nm as required. Intrinsic fluorescence measurements were performed on a Hitachi F 7000 spectrofluorometer (Japan) equipped with the programmable temperature controller. The excitation and emission slit widths were adjusted to 5 nm with a PMT voltage of 500 V. Circular dichroism (CD) spectrophotometric recordings were obtained with a Jasco J-815 spectropolarimeter (Japan) using a quartz cuvette of […]. The studies were carried out in the 20 mM tris buffer of pH 7.4 and at 25 °C unless stated otherwise. Autodock 4.2 [36] was used to perform molecular docking and MD simulations were performed through GROMACS 2021.3 [37] with the utilization of the CHARMM force field for a production run of 100 ns. The detailed methodology is given in the Supplementary Materials. […]

HSA = HSA (Homo sapiens, UniProt P02768); test: Far-UV circular dichroism spectroscopy of HSA with ceftazidime; details: far-UV CD, dependent on drug concentration
Method: (§1) UV-visible studies were performed on a Perkin Elmer Lambda 45 spectrophotometer (Germany) within the range of 200 nm to 500 nm as required. Intrinsic fluorescence measurements were performed on a Hitachi F 7000 spectrofluorometer (Japan) equipped with the programmable temperature controller. The excitation and emission slit widths were adjusted to 5 nm with a PMT voltage of 500 V. Circular dichroism (CD) spectrophotometric recordings were obtained with a Jasco J-815 spectropolarimeter (Japan) using a quartz cuvette of […]. The studies were carried out in the 20 mM tris buffer of pH 7.4 and at 25 °C unless stated otherwise. Autodock 4.2 [36] was used to perform molecular docking and MD simulations were performed through GROMACS 2021.3 [37] with the utilization of the CHARMM force field for a production run of 100 ns. The detailed methodology is given in the Supplementary Materials.
Non-steroidal anti-inflammatory drug effect on the binding of p lasma […]
on Perkin-Elmer Lambda 45 Spectrophotometer equipped with autosampler and water-
bath with temperature controller. Quartz cuvettes of 1 cm path length were used for the
Fluorescence measurements were performed on Hitachi spectrofluorometer (Model […]
fluorescence spectra were collected at 25 °C with a cell of path length 1 cm. […]
and emission slits were set at 5 nm. Intrinsic fluorescence was measured by exciting […]

[2] = target: T1, human serum albumin (HSA); test: Effect of paracetamol on HSA–ceftazidime binding (fluorescence quenching, Lineweaver–Burk analysis); details: for KSV: 25 °C
Method: as §1

[3] = target: T1, human serum albumin (HSA); test: Competitive binding site assay with site markers warfarin, ibuprofen and hemin (fluorescence quenching); details: for KSV: 25 °C
Source text: DS1 is located in subdomain IIA, while DS2 is located in subdomain IIIA. There are several molecules that have the specific affinities towards these binding sites; for instance, warfarin binds strongly at DS1 and ibuprofen binds at DS2 [12]. There is another binding site within HSA, which is also known as fatty acid binding site 1, located in subdomain IB, which has a precise affinity for hemin [12]. Therefore, these molecules could be considered as the specific site markers for these sites and can be used to see the competitive binding between the molecule under consideration. […] The corresponding quenching and binding plots are given in Figure 7A,B and the calculated values of quenching and binding constants are shown in Table 2. […] To obtain more understanding on the binding site, we performed computational studies using molecular docking and molecular dynamics simulations, which will be described in the next sub-sections.
as §1

[4] = Van't Hoff plot of ln Kb vs. 1/T, 25–45 °C

T1 sequence (P02768 25-609): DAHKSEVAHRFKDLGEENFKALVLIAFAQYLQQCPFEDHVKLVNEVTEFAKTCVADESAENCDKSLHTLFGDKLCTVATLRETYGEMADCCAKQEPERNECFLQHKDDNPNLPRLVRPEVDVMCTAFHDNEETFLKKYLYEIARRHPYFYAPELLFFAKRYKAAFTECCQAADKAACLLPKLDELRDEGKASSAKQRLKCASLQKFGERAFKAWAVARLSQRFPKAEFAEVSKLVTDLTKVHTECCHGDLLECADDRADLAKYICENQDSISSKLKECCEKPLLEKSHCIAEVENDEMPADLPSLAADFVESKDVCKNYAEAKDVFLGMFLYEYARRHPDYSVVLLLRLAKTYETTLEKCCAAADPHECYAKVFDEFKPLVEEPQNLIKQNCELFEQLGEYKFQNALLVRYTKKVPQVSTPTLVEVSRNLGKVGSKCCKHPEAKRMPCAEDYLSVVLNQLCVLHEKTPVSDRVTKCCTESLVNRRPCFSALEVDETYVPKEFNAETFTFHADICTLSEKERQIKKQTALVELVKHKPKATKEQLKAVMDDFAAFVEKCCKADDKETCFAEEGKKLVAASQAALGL
Sequence of HSA (P02768 25-609): as above

Q: With `CC(C)(O/N=C(\C(=O)N[C@@H]1C(=O)N2C(C(=O)[O-])=C(C[n+]3ccccc3)CS[C@H]12)c1csc(N)n1)C(=O)O` [Ceftazidime] as the compound, how does the “n (number of binding sites)” value ([1]; 25 °C) read?
A: Its value is 0.96.

Q: What about the “KSV (Stern–Volmer quenching constant)” value ([1]; 25 °C) of the same compound?
A: Its value is 2.3 × 10^3 M^–1.

Q: What about the “ΔG (free energy change of binding)” value ([1]; 25 °C) of the same compound?
A: Its value is -18.4 kJ/mol.

Q: And the “n (number of binding sites)” value ([1]; 35 °C)?
A: The value was 1.01.

Q: What about the “KSV (Stern–Volmer quenching constant)” value ([1]; 35 °C) of the same compound?
A: The value was 2.6 × 10^3 M^–1.

Q: And the “ΔG (free energy change of binding)” value ([1]; 35 °C)?
A: Its value is -20.7 kJ/mol.

Q: What about the “n (number of binding sites)” value ([1]; 45 °C) of the same compound?
A: Its value is 1.09.

Q: What about the “KSV (Stern–Volmer quenching constant)” value ([1]; 45 °C) of the same compound?
A: Its value is 3.2 × 10^3 M^–1.

Q: And the “ΔG (free energy change of binding)” value ([1]; 45 °C)?
A: Its value is -23.0 kJ/mol.

Q: And the quenching mechanism ([1]; KSV increased on increasing the temperature)?
A: The quenching mechanism was “dynamic quenching mechanism”.

Q: What about the “ΔH (enthalpy change of binding)” value [1, 4] of the same compound?
A: The value was 49.5 kJ/mol.

Q: What about the “ΔS (entropy change of binding)” value [1, 4] of the same compound?
A: The value was 227.8 J mol^−1 K^−1.

Q: And the “effect on secondary structure of HSA” value (HSA)?
A: The value was “partial unfolding of the protein”.

Q: And the KSV ([2]; in the presence of 50 µM paracetamol)?
A: Its KSV is 2.2 × 10^3 M^–1.

Q: What about the KSV ([2]; in the presence of 100 µM paracetamol) of the same compound?
A: Its KSV is 1.8 × 10^3 M^–1.

Q: And the KSV ([2]; in the presence of 150 µM paracetamol)?
A: The KSV was 1.7 × 10^3 M^–1.

Q: What about the KSV ([2]; in the presence of 250 µM paracetamol) of the same compound?
A: Its KSV is 1.6 × 10^3 M^–1.

Q: And the KSV ([2]; in the presence of 500 µM paracetamol)?
A: Its KSV is 1.3 × 10^3 M^–1.

Q: And the KSV ([3]; in the presence of hemin (site marker subdomain IB))?
A: The KSV was 1.3 × 10^3 M^–1.

Q: What about the KSV ([3]; in the presence of ibuprofen (site marker DS2)) of the same compound?
A: The KSV was 2.3 × 10^3 M^–1.

Q: What about the KSV ([3]; in the presence of warfarin (site marker DS1)) of the same compound?
A: The KSV was 1.7 × 10^3 M^–1.

Q: What about the “preferred binding site within HSA” value ([3]; site markers and docking) of the same compound?
A: Its value is “subdomain IB”.

Q: `CC(=O)Nc1ccc(O)cc1` [Paracetamol, paracetamol] was tested. Which “type of inhibition of HSA–ceftazidime binding” value ([2]; Lineweaver–Burk plots) did it give?
A: Its value is “non-competitive”.
